Among the data in a melting point compilation (Tetko et al.; mined from patent text by program, amines drawn as free bases though some values may be those of a salt) are melting point values, retold here.

The term melting point denotes the temperature, or range, at which the solid turns liquid.

The structures appear in SMILES notation.

Regarding `CCOC(=O)c1cc(-c2ccc(C)cc2)n(-c2ccc(S(N)(=O)=O)cc2)n1`, the melting point was in the range of 220 to 222 °C.
The compound `ON=Cc1cccc(OCCN2CCC(Cc3ccccc3)CC2)c1` returned a melting point of 141 to 143 °C.
Under `O=C(O)C=Cc1ccc(-c2ccc3ncnc(Nc4ccc(OCc5cccc(F)c5)c(Cl)c4)c3c2)s1` stands 252 °C; under `ClCCCCCOc1ccc(C2=C(c3ccccc3)CCCc3ccccc32)cc1`, 118 to 120 °C; under `COc1cc2ncnc(Nc3cccc(Br)c3)c2cc1OCC1CO1` (stereo not given), 230 to 245 °C.
To `CCOc1cc(OCC)c2c(C)c(CCCl)c(=O)oc2c1` belongs 123 to 126 °C.
The compound `COC(=O)c1ccc(C(C(N)=O)C(C)c2cc(Cl)ccc2N2CCCC2)cc1` (stereo not given) gave a melting point of 133 to 135 °C.
Under `CC1NC(=O)NN=C1c1ccc(N)c(Cl)c1` (stereo not given) stands 229 to 231 °C; under `Cc1c(C(=O)O)cccc1S(=O)(=O)CCO`, 160 to 165 °C.
Consider `O=C1N(c2cc(Cl)cc(Cl)c2)C(=O)C2(Cc3ccc(Br)cc3)C[C@@H](c3ccccc3)CN12` (stereo not given in full), for which the melting point was 124 °C.
In the case of `O=C(c1ccc(-c2ccc(Cl)cc2)cc1)C(O)O`, the melting point was in the range of 275 to 285 °C.
The compound `COc1ccc([C@H]2CCCC[C@H]2NC(=O)c2ccc(C(=O)c3ccccc3)cc2)cc1OC` had a melting point of 119 to 122 °C.
To `CC(C)(C)OC(=O)N[C@H]1CC[C@H](CC=O)CC1` belongs 61 to 63 °C; to `CC(CCC(=O)NN1CCN(C)CC1)C1CC=C2C3=C(CCC21C)C1(C)CCC(O)C(C)(C)C1CC3` (stereo not given), 189 to 191 °C.
Compound `Cc1cc(O)n2nc(CN)nc2n1` registered a melting point of 204 to 207 °C.
`NC(=C[N+](=O)[O-])N1CCCC1`: the melting point lay in the range of 120 to 125 °C.
Turning to `O=C(/C=C/c1ccc2ccccc2n1)NO`, the melting point is 160 °C.
Turning to `O=C1C(=O)c2ccccc2C2=C1SCC1(CCN(C(=O)c3cccc(C(F)(F)F)c3)CC1)O2`, the melting point lay in the range of 165 to 166 °C.
As to `CCOC(=O)C(CCCCOc1ccccc1)C(=O)O` (stereo not given), the melting point lay in the range of 69 to 72 °C.
Consider `O=C(O)Cn1c(=O)n2n(c1=O)C(C(=O)O)CCC2` (stereo not given), for which the melting point lay within 189 to 192 °C.
`CCOC(=O)CN1C(=O)Nc2cccc(OC)c2C1C` (stereo not given): the melting point fell in the range of 150 to 151 °C.
Under `Cc1ccc(C(=O)C=Cc2ccc[nH]2)cc1` stands 158 to 160 °C; under `CC(C)[C@@H](NC(=O)OCc1ccccc1)C(=O)C=[N+]=[N-]`, 68 to 69 °C.
Consider `O=[N+]([O-])c1ccc2c(c1)S(=O)(=O)N=C(NCC1CC1)N2`, for which the melting point is 276 to 278 °C.
`CCc1nc2c(C)cc(C)nc2n1Cc1ccc(-c2ccccc2-c2c(N)c(=O)c2=O)cc1` gave a melting point of 217 °C.
For `O=C(CBr)c1ccc(S(=O)(=O)Cl)cc1`, the melting point amounted to 111 °C.
Compound `O=c1nc(-c2cccc(CO)n2)sc2ccccc12` displayed a melting point of 208 to 209 °C.
Turning to `COC(=O)NC[C@H]1CN(c2ccc3c(c2)CCCc2cnoc2-3)C(=O)O1`, the melting point was in the range of 166 to 168 °C.
As for `C=C1N(c2ccccc2)C(=O)OC12CCNCC2`, the melting point was in the range of 185 to 186 °C.
Under `CCOC(=O)C1=C(C)NC(SCc2ccc(OC)cc2)=NC1c1cccc([N+](=O)[O-])c1Cl` (stereo not given) stands 155 to 157 °C; under `CN(C)c1ncc2c(=O)n(CCc3ccccn3)sc2n1`, 134 to 136 °C.
As to `CC(=O)C1=C(C)NC(=O)N(C(C)=O)C1c1ccccc1` (stereo not given), the melting point lay in the range of 181 to 183 °C.
Take `CN(Cc1ccc(NC(=O)C2=Cc3cc(-c4ccc(OC(F)(F)F)cc4)ccc3S(=O)(=O)CC2)cc1)C1CCOCC1`: the melting point fell in the range of 261 to 263 °C.
`CCOC(=O)c1nc2c(=O)[nH]c3cc(C(F)(F)F)ccc3n2c1P(=O)(OCC)OCC`: the melting point was 198 to 199 °C.
`COc1cc(-n2ccc(C)n2)ccc1C(=O)N1Cc2cccn2Cc2ccccc21` showed a melting point of 92 to 94 °C.
With `CCn1nc(C(F)(F)F)c(CS(=O)(=O)C2=NOC(C)(CCl)C2)c1S(C)(=O)=O` (stereo not given), the melting point lay in the range of 113 to 114 °C.
Regarding `O=c1[nH]c2cc(Cl)ccc2c(O)c1-c1ccc(/C=C\c2ccccc2)cc1`, the melting point lay in the range of 284 to 286 °C.
On to `CCC(C)OC(=O)CCC(S)(C#N)C1=NCCc2cc(OC)c(OC)cc21` (stereo not given), for which the melting point is 120 °C.
For `CS(=O)(=O)Nc1cc2occ(C=Cc3ccccc3)c(=O)c2cc1Oc1ccccc1`, the melting point was 174 to 175 °C.
As to `CCCCCC(=O)N(C)Cc1cc(-c2ccc(C[C@H](OCC)C(=O)O)cc2)cs1`, the melting point was determined as 65 °C.
Under `CC(C)(C)C1=C(c2cc3cc(O)ccc3s2)OCC1(C)C` stands 196 °C; under `Cc1nn(-c2c(Cl)cc(C(F)(F)F)cc2Cl)c(N)c1I`, 116 to 118 °C; under `N#Cc1ccc(Cc2ccc(OCc3ccccc3)cc2)cc1`, 110 to 111 °C.
In turn, `CCCCOc1ccc(S(=O)(=O)C2(C(=O)NO)CCN(C)CC2)cc1` displayed a melting point of 118 °C.
The compound `N#Cc1cccc(C2=Nc3ccc(C#Cc4ccc(F)cc4F)cc3NC(=O)C2)c1` gave a melting point of 240 to 246 °C.
Turning to `Cc1cn(C2(C(=O)N(C)C)CCC2)nc1-c1ccccc1`, the melting point was 87 to 89 °C.
The compound `COc1ccc(S(=O)(=O)NCCc2ccc(OCC(=O)O)cc2)cc1` yielded a melting point of 82 to 83 °C.
`CC(=O)N[C@H]1CC[C@H](c2ccc(N)cc2)CC1`: the melting point is 195 to 196 °C.
Regarding `CCCCNc1nc2ccccc2n2ncc(C(=O)OCC)c12`, the melting point was 96 °C.
Compound `CC(C)c1cccc(C(C)C)c1NC(=O)NCC1(c2ccc(-c3ccccc3)cc2)CCC1` showed a melting point of 177 to 179 °C.
The compound `Cc1nc2cnccc2n1-c1ccc(Cn2c(=O)sc3ccccc32)cc1` yielded a melting point of 198 to 201 °C.
To `O=C1C(Br)=C(Br)C(=O)c2c(F)cccc21` belongs 100 °C; to `CCCN(Cc1ccc(-c2ccccc2-c2nc(=O)s[nH]2)cc1)c1nc(C)ncc1C(=O)OCC`, 173 to 175 °C.
Under `C=C(OCC)c1nc(-c2ccco2)c2ncn(Cc3ccc(OC)cc3)c2n1` stands 144 to 145 °C; under `CCn1c(=O)c2c(nc(/C=C/c3ccc(OC(=O)c4ccccc4)cc3)n2C)n(CC)c1=O`, 208 to 209 °C.
`O=C([C@@H]1O[C@H]1c1ccccc1)N(CC1CC1)[C@@H]1CCCC[C@H]1O`: the melting point was 110 to 120 °C.
`OCC1OC(n2cnc3c2ncn2ccnc32)CC1O` (stereo not given) came in with a melting point of 138 to 141 °C.
On to `CC(C)(C)OC(=O)NC1Cc2ccccc2C2OC12` (stereo not given), for which the melting point lay within 118 to 119 °C.
Under `CC(=O)N(CC(=O)O)c1c(C(=O)c2ccccc2)[nH]c2cc(Cl)ccc12` stands 148 to 154 °C; under `CCN1CC(OCC=C(C)C)(C(F)(F)F)c2cc(Cl)ccc2NC1=O` (stereo not given), 158 to 160 °C.
Regarding `Cc1cc(Oc2ccc3nc(COc4ccc(CC5SC(=O)NC5=O)cc4)n(C)c3c2)cc(C)c1NC(=S)Nc1ccc(Cl)cc1` (stereo not given), the melting point lay in the range of 160 to 162 °C.
The compound `Nc1nn(-c2c(Cl)cc(C(F)(F)F)cc2Cl)cc1C1CC1(Br)Br` (stereo not given) showed a melting point of 125 to 126 °C.
Regarding `CC(=O)NC(C)COc1c(C)cccc1C` (stereo not given), the melting point lay in the range of 85 to 85.8 °C.
The compound `O=C(c1ccn2c1CSC2c1cccnc1)c1cn(Cc2nnn[nH]2)c2cc(-c3ccc(F)cc3)ccc12` (stereo not given) gave a melting point of 110 to 118 °C.
With `CCCCOC(=O)NC1(c2ccccc2Cl)CCCCC1=O` (stereo not given), the melting point fell in the range of 130 to 132 °C.
In the case of `O=C(O)C1CCC(c2ccc(O)cc2)CC1` (stereo not given), the melting point is 248 to 250 °C.
Under `C=CCn1c(=O)c(C(=O)OCC)c(N)c2ccccc21` stands 132 to 134 °C; under `CC(Oc1ccc2nc(NC(=O)NCCN3CCOCC3)sc2c1)c1c(Cl)cccc1Cl` (stereo not given), 165 to 168 °C.
Consider `COc1cc(Nc2c(C#N)cnc3cc(-c4ccc(C5OCCCO5)o4)ccc23)c(Cl)cc1Cl`, for which the melting point is 224 to 229 °C.
To `COc1cc2c(cc1Nc1ncc(F)c(Nc3ccc(N4CCOCC4)cc3OC)n1)CCN(CC(=O)OC(C)C)CC2` belongs 94 to 110 °C; to `CCN1C(=O)C(CCN2CCN(c3ccccc3OC)CC2)Sc2ccccc21` (stereo not given), 142 to 144 °C.
To `N#CC1(c2ccccc2)CCN(C(=O)CC(c2ccccc2)(c2ccccc2)c2ccccc2)CC1` belongs 188 to 190 °C.
With `COc1ccc2c(c1)S(=O)(=O)c1ccccc1C(=O)N2`, the melting point fell in the range of 244 to 246 °C.
To `CCOC(=O)c1nnc(CNC(=O)c2cc3ccccc3[nH]2)n1-c1sc(CC)cc1C(=O)c1ccccc1Cl` belongs 233 to 235 °C; to `CN(C1=CC(=O)CC1)[C@@H]1c2cc(C#N)ccc2OC(C)(C)[C@H]1O` (relative stereo), 271 to 274 °C.
Compound `COC(=O)[C@@H]1C(=O)N(C)c2ccccc2C[C@H]1c1ccc2c(c1)OCO2` (racemic) gave a melting point of 125 to 127 °C.
Take `N=C(NO)c1ccc2[nH]cc(CCN3C(=O)c4ccccc4C3=O)c2c1`: the melting point was in the range of 168 to 170 °C.
Take `CCOC(=O)c1c(C)cc2c(c1C)c(=O)n(-c1ccccc1Cl)c(=O)n2CC(N)=O`: the melting point was 285 to 287 °C.
`Cc1nc(-c2ccccc2)c(-c2ccccc2)n1CCCCCCNC(=O)Oc1ccccc1F` came in with a melting point of 129 to 131 °C.
To `Cc1ccnc(N2CCN(CCC3Cn4c(-c5ccc(O)cc5)c(C)c5cccc(c54)O3)CC2)c1` (stereo not given) belongs 213 to 214 °C.
To `COc1ccc(CN(C)CCCOc2ccc(S(=O)(=O)c3c(C(C)C)cn4ccccc34)cc2)cc1OC` belongs 96 to 100 °C; to `Nc1ccc(C(=O)NCCNC(=O)c2ccc(N)cc2)cc1`, 294 to 295 °C; to `Cc1cccc(NC(=O)NCC(=O)N(CC(=O)OC(C)(C)C)c2ccc(Cl)cc2)c1`, 125 °C.
Consider `CN1CCC(O)(c2cn(-c3ccnc(NC4CCCC4)n3)c(-c3cccc(C(F)(F)F)c3)n2)CC1`, for which the melting point was 189 to 193 °C.
`O=C(Cc1c(-c2ccccc2)c2cc(CN3CCOCC3)c(Cl)cc2oc1=O)Nc1ccc(Cl)cc1C(F)(F)F` showed a melting point of 205 to 207 °C.
